The values that follow come from patent publication US4570006A, “Amidine compound, process for producing same and anti-complement agent comprising same” (Torii & Co. Ltd., priority 1981, dated 1986).

One assay addresses T1, Trypsin (Bos taurus, UniProt P00760).
T1 sequence (P00760 24-246): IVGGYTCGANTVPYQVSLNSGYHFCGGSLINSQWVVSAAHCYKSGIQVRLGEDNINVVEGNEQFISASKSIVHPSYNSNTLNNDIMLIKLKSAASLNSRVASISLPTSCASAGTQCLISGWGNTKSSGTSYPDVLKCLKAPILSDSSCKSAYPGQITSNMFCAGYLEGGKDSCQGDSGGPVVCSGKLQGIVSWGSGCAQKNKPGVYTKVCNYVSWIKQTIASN
The experiment in a line: Anti-trypsin activity (inhibition of TAME hydrolysis). Type of assay: biochemical. Particulars: read-out: ID50, trypsin. The method, boiled down:
(§1)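 Inhibition of enzymatic TAME (tosylarginine methyl ester) hydrolysis, per Muramatsu et al. Values are ID50, the molar concentration of compound inhibiting 50% of each enzyme's TAME-hydrolysing activity.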

The subject of a further assay is complement. The experiment in a line: Inhibition of complement mediated hemolysis. The class given is cell-based.
A further assay has as its target Thrombin (Homo sapiens, UniProt P00734). As to the kind of experiment: biochemical. The settings on record: TAME hydrolysis; read-out: ID50, thrombin.
In another assay the target is Plasmin (Homo sapiens, UniProt P00747). The experiment in a line: Anti-plasmin activity (inhibition of TAME hydrolysis). Type of assay: biochemical. Particulars: read-out: ID50, plasmin. The method, boiled down:
as §1

The next assay has as its target T2, Clr (Homo sapiens, UniProt P00736).
T2 sequence (P00736 464-705 limits assumed): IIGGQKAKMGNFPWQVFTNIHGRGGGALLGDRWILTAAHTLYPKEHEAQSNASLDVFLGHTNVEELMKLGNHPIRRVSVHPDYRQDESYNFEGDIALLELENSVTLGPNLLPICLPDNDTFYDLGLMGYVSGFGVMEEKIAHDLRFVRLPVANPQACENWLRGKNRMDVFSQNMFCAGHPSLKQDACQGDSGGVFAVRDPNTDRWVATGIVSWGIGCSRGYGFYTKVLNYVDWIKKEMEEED
T2 sequence (P00736 18-463 limits assumed): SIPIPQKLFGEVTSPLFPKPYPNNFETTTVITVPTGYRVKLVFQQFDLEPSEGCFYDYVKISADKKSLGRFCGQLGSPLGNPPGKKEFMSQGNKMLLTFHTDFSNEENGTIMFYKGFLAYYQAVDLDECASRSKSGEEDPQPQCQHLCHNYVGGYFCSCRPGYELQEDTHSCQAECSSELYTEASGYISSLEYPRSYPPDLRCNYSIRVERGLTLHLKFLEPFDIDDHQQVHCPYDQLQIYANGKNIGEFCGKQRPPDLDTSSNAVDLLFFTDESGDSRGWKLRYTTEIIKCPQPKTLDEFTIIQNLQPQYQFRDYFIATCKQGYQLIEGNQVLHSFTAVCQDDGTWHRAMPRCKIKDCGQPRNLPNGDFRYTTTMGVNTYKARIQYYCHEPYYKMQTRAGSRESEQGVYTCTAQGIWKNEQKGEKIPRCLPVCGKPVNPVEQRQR
As to the kind of experiment: Anti-Cl esterase activity, Clr (AAME hydrolysis). Type of assay: biochemical. The settings on record: hydrolysis of AAME; read-out: Anti-Cl activity, Clr (ID50). The method, then:
The anti-Cl esterase ([…]) activity was determined according to the method of Okamura et al. [K. Okamura, M. Muramatsu and B. Fujii, Biochem. Biophys.

For a further assay, the target named is T3, Cls (Homo sapiens, UniProt P09871).
T3 sequence (P09871 438-688 limits assumed): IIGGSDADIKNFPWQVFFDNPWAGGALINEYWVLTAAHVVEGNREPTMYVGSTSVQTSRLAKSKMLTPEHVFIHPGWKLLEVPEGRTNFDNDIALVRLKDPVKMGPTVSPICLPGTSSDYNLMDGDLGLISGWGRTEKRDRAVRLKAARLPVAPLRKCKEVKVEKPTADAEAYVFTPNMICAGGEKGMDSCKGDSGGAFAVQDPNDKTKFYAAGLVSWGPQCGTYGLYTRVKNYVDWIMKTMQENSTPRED
T3 sequence (P09871 16-437 limits assumed): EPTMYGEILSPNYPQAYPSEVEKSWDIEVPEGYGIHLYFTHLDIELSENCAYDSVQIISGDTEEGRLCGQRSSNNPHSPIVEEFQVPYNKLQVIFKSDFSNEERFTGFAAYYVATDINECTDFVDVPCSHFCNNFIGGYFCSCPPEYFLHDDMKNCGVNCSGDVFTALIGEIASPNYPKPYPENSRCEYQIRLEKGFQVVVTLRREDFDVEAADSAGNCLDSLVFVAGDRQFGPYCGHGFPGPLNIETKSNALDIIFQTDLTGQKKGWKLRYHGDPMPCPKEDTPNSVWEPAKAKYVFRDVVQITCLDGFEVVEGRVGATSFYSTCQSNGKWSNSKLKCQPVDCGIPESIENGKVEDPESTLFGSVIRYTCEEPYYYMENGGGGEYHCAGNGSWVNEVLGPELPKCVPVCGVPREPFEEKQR
The experiment in a line: Anti-Cl esterase activity, Cls (ATEE hydrolysis). The settings on record: hydrolysis of ATEE; read-out: Anti-Cl activity, Cls (50% inhibition). Type of assay: biochemical. The method, then:
The anti-Cl esterase (Clr, Cls) activity was determined according to the method of Okamura et al. [K. Okamura, M. Muramatsu and B. Fujii, Biochem. Biophys. […] The figures in Table 2 have the following meanings:
Cls: Molar concentration of the test compound which inhibits 50% of the ability of Cls to hydrolyse ATEE (acetyltyrosin ethyl ester).

The next assay relates to Kallikrein. The experiment in a line: Anti-kallikrein activity (inhibition of TAME hydrolysis). Type of assay: biochemical. The settings on record: read-out: ID50, kallikrein. The method, boiled down: as §1

Chain of Plasmin (P00747 581-810 limits assumed, species assumed): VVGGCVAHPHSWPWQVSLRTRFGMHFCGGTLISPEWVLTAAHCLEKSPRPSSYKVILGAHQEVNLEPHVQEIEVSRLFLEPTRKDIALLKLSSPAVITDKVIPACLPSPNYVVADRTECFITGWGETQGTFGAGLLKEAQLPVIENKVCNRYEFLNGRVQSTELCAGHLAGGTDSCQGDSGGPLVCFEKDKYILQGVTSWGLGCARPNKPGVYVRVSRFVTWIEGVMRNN
Chain of Plasmin (P00747 97-580 limits assumed, species assumed): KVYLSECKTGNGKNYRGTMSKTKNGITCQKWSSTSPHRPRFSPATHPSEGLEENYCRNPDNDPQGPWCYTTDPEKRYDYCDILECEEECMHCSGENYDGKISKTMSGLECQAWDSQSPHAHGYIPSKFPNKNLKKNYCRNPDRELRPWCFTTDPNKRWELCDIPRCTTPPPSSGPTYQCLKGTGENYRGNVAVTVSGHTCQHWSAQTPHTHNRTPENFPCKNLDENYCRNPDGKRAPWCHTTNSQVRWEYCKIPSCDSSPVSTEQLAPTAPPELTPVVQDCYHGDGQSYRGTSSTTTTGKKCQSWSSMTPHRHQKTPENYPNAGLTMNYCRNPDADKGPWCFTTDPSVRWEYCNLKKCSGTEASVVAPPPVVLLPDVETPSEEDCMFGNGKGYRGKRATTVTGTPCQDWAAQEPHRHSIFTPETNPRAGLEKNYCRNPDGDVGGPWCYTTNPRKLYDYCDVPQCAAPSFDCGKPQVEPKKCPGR

Consider `CC(=O)Oc1ccc(C=CC(=O)Oc2ccc(C(=N)N)cc2C(=O)c2ccccc2)cc1` [Compound 54, 4-amidino-2-benzoylphenyl 4-acetyloxycinnamate], for which the IC50 on Trypsin came to 0.02 µM; at Thrombin, 0.09 µM; on Plasmin, 0.3 µM; at Clr, 2 µM; on Cls it was 0.2 µM; with Kallikrein it was 0.4 µM. Also, the “Inhibition of complement mediated hemolysis (%)” value (“Inhibition … (%)” for short) in the assay with complement (compound at 1 × 10^-4) stood at 99.1%; in the assay on complement (compound at 1 × 10^-5), 98.6%; with complement (compound at 1 × 10^-6) it was 79.4%; with complement (compound at 1 × 10^-7), 41.1%.

Take `CC(=O)Nc1ccc(C(=O)Oc2ccc(C(=N)N)cc2C(=O)c2ccccc2)cc1` [Compound 56, 4-amidino-2-benzoylphenyl 4-acetylaminobenzoate]: the IC50 at Trypsin was found to be 0.05 µM; at Thrombin it was 0.06 µM; at Plasmin, 0.3 µM; at Clr, 1 µM; on Cls, 0.5 µM; in the assay on Kallikrein it was 0.4 µM. Also, the “Inhibition … (%)” value in the assay on complement (compound at 1 × 10^-4) stood at 99.1%; with complement (compound at 1 × 10^-5) it was 98.1%; in the assay on complement (compound at 1 × 10^-6) it was 88.1%; with complement (compound at 1 × 10^-7), 20.4%.

With `COc1cc(C(=N)N)ccc1OC(=O)c1ccc(CNC(=O)OCc2ccccc2)cc1` [Compound 57, 4-amidino-2-methoxyphenyl 4-benzyloxycarbonylaminomethylbenzoate], the IC50 was 2 µM on Trypsin; 8 µM on Thrombin; 0.2 µM on Plasmin; > 10 µM on Clr; 2 µM on Cls; 3 µM with Kallikrein. The “Inhibition … (%)” value came to 70.5% in the assay on complement (compound at 1 × 10^-4), 14.8% with complement (compound at 1 × 10^-5), 2.3% in the assay on complement (compound at 1 × 10^-6) and 0% in the assay on complement (compound at 1 × 10^-7).

On to `COc1cc(C(=N)N)ccc1OC(=O)c1ccc(CN)cc1` [Compound 58, 4-amidino-2-methoxyphenyl 4-aminomethylbenzoate], for which the IC50 at Trypsin was 8 µM; at Thrombin, > 10 µM; on Plasmin, 8 µM; on Clr it was > 10 µM; on Cls, 4 µM; with Kallikrein, 2 µM. In addition, the “Inhibition … (%)” value in the assay with complement (compound at 1 × 10^-4) is 93.4%; in the assay on complement (compound at 1 × 10^-5), 20.0%; with complement (compound at 1 × 10^-6) it was 3.0%; in the assay on complement (compound at 1 × 10^-7), 0%.

Regarding `COC(=O)c1cc(C(=N)N)ccc1OC(=O)c1ccc(CNC(=O)OCc2ccccc2)cc1` [Compound 59], the IC50 on Trypsin came out at 0.5 µM; on Thrombin it was 4 µM; at Plasmin, 0.07 µM; at Clr, 2 µM; at Cls, 0.3 µM; in the assay with Kallikrein, 0.7 µM. The “Inhibition … (%)” value in the assay with complement (compound at 1 × 10^-4) is reported as 100%; in the assay with complement (compound at 1 × 10^-5), 100%; in the assay on complement (compound at 1 × 10^-6), 76.0%; in the assay with complement (compound at 1 × 10^-7) it was 15.6%.

With `COC(=O)c1cc(C(=N)N)ccc1OC(=O)c1ccc(CN)cc1` [Compound 60], the IC50 at Trypsin is 1 µM; on Thrombin, > 10 µM; at Plasmin it was 4 µM; at Clr, 3 µM; at Cls it was 0.8 µM; in the assay with Kallikrein, 2 µM. Moreover, the “Inhibition … (%)” value with complement (compound at 1 × 10^-4) is 100%; in the assay with complement (compound at 1 × 10^-5) it was 100%; with complement (compound at 1 × 10^-6) it was 89.8%; with complement (compound at 1 × 10^-7), 44.4%.

As for `N=C(N)c1ccc(OC(=O)c2ccc(CNC(=O)OCc3ccccc3)cc2)c([N+](=O)[O-])c1` [Compound 61], the IC50 turned out to be 0.2 µM on Trypsin; 0.4 µM on Thrombin; 0.2 µM on Plasmin; 0.4 µM at Clr; 0.3 µM on Cls; 1 µM in the assay with Kallikrein. The “Inhibition … (%)” value in the assay on complement (compound at 1 × 10^-4) stood at 98.6%; with complement (compound at 1 × 10^-5) it was 100%; with complement (compound at 1 × 10^-6), 98.0%; with complement (compound at 1 × 10^-7), 76.1%.

Turning to `N=C(N)c1ccc(OC(=O)c2ccc(CN)cc2)c([N+](=O)[O-])c1` [Compound 62], the IC50 on Trypsin was 0.5 µM; at Thrombin, 500 µM; on Plasmin, 3 µM; on Clr, 0.5 µM; on Cls, 0.6 µM; in the assay on Kallikrein, 2 µM. Also, the “Inhibition … (%)” value in the assay on complement (compound at 1 × 10^-4) came to 100%; in the assay on complement (compound at 1 × 10^-5), 100%; in the assay with complement (compound at 1 × 10^-6), 100%; in the assay on complement (compound at 1 × 10^-7) it was 95.4%.

Turning to `CN(C)c1ccc(C(=O)Oc2ccc(C(=N)N)cc2C(=O)c2ccccc2)cc1` [Compound 66, 4-amidino-2-benzoylphenyl 4-dimethylaminobenzoate], the IC50 is 0.01 µM at Trypsin; 0.2 µM at Thrombin; 0.4 µM on Plasmin; 3 µM at Clr; 0.04 µM on Cls; 0.2 µM with Kallikrein. For the same molecule, the “Inhibition … (%)” value was found to be 99.1% in the assay on complement (compound at 1 × 10^-4), 96.4% in the assay on complement (compound at 1 × 10^-5), 41.7% with complement (compound at 1 × 10^-6) and 0% with complement (compound at 1 × 10^-7).

On to `COc1cc(C(=N)N)ccc1OC(=O)c1ccc(NC(=N)N)cc1` [Compound 71], for which the IC50 at Trypsin amounted to 0.04 µM; on Thrombin, 2 µM; at Plasmin, 2 µM; on Clr it was 4 µM; on Cls, 0.7 µM; in the assay on Kallikrein it was 30 µM. Also, the “Inhibition … (%)” value in the assay on complement (compound at 1 × 10^-4) came to 90.6%; with complement (compound at 1 × 10^-5) it was 35.3%; with complement (compound at 1 × 10^-6) it was 2.7%; in the assay on complement (compound at 1 × 10^-7), 9.0%.
